Data on 19 compounds can be found in patent US20260217708A1, “FUSED BENZAZEPINE DERIVATIVES FOR USE IN THE TREATMENT OF CANCER AND EPILEPSY” (UCB BIOPHARMA SRL, priority 2023, published 2026).

Where only a bound is given, the exact number is not on record here.

Experiment [1] deals with T1, system Xc^− (Homo sapiens, UniProt Q9UPY5).
T1 sequence (Q9UPY5 1-501): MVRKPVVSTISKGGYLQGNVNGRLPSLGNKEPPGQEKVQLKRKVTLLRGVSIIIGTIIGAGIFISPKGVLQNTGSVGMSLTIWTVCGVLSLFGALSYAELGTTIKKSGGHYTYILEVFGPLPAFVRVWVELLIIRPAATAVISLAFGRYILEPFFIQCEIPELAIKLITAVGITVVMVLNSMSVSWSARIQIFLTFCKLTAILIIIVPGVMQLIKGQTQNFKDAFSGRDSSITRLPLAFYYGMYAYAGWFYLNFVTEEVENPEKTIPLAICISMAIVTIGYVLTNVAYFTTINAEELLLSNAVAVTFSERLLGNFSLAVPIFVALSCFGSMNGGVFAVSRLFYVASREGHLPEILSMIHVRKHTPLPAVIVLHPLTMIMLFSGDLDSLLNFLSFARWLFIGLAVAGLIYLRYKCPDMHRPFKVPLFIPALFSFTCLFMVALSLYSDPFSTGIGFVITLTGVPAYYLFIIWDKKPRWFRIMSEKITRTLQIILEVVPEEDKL
T1 sequence (P08195 1-529 partner): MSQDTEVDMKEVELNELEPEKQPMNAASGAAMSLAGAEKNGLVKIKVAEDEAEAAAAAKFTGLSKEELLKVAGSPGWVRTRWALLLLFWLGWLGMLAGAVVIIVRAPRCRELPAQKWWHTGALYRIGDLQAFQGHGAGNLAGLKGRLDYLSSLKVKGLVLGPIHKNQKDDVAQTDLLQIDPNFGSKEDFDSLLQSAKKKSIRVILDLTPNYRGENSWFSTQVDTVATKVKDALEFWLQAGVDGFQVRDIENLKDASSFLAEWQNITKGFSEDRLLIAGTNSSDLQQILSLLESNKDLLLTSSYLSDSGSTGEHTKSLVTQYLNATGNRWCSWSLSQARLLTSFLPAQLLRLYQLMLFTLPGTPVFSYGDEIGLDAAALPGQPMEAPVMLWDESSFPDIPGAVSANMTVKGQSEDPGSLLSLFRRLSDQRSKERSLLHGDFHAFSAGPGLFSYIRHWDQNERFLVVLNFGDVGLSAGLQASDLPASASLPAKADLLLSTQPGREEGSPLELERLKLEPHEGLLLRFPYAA
Put plainly: Cystine-induced glutamate release assay. The format is cell-based. Set-up: endogenous in cells; host or cells: H4 cells. Conditions: H4 cells, sodium-free HEPES buffer, 50 μM L-Cystine, 2 hours, Amplex Red glutamate readout; read-out: pIC50 Cystine-induced glutamate release assay (converted). The method, boiled down:
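H4 cells in sodium-free HEPES buffer (pH 7.4), 2 days after plating; glutamate release induced with 50 μM L-cystine plus compound (1% DMSO), 2 h at 37 °C. Supernatant glutamate measured by Amplex Red fluorescence; IC50/pIC50 derived between 1% DMSO and 50 μM erastin controls.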

Experiment [2] addresses T1, system Xc^−. Put plainly: [^14C]L-Cystine uptake assay. It is filed as cell-based. The conditions noted are these: H4 cells, sodium-free HEPES buffer, 0.5 μM L-[14C]Cystine and 4.5 μM L-Cystine, 1 hour at 37° C.; read-out: pIC50 [^14C] L-Cystine uptake assay (converted). Set-up: endogenous in cells; host or cells: H4 cells. The method, boiled down: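 H4 cells at 5×10^4 cells/well in sodium-free HEPES buffer were preincubated 15 min with compounds (1% DMSO). Uptake of 0.5 μM [14C]L-cystine plus 4.5 μM unlabelled L-cystine ran 1 hour at 37° C on scintillating plates. IC50 was set between 1% DMSO and 50 μM Erastin controls and expressed as pIC50.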

As to `CC1C(=O)N(CC(=O)Nc2ccc(C(F)F)cc2)c2ccnc(Cl)c2-c2cccnc21` (single isomer, unassigned) [#398, N-[4-(difluoromethyl)phenyl]-2-[3-chloro-10-methyl-9-oxo-4,8,12-triazatricyclo[9.4.0.0^2,7]pentadeca-1(11),2(7),3,5,12,14-hexaen-8-yl]acetamide], the IC50 at system Xc^− [1] is 15.8 to 39.8 nM; at system Xc^− [2], 39.8 to 100 nM.

For `Cc1cc2c(c(F)n1)-c1ccnn1C(C)C(=O)N2CC(=O)Nc1ccc(C(F)(F)F)cc1` (centres unmarked) [#111, 2-(14-fluoro-7,12-dimethyl-8-oxo-5,6,9,13-tetrazatricyclo[8.4.0.0^2,6]tetradeca-1(10),2,4,11,13-pentaen-9-yl)-N-[4-(trifluoromethyl)phenyl]acetamide], the IC50 on system Xc^− [1] is 100 to 501 nM; on system Xc^− [2], 39.8 to 100 nM.

As to `Cc1cc2c(c(F)n1)-c1cc(F)ccc1C(C)C(=O)N2CC(=O)Nc1ccc(Cl)c(F)c1` (single isomer, unassigned) [#405, N-(4-chloro-3-fluoro-phenyl)-2-[1,10-difluoro-3,7-dimethyl-6-oxo-7H-pyrido[3,4-a][3]benzazepin-5-yl]acetamide], the IC50 at system Xc^− [1] was 15.8 to 39.8 nM; at system Xc^− [2], below 15.8 nM.

In the case of `Cc1cc2c(n(C)c1=O)-c1ccccc1C(C)C(=O)N2CC(=O)Nc1ccc(C(F)(F)F)cc1` (single isomer, unassigned) [#121, N-[4-(trifluoromethyl)phenyl]-2-[1,3,7-trimethyl-2,6-dioxo-7H-pyrido[3,2-d][3]benzazepin-5-yl]acetamide], the IC50 at system Xc^− [1] and on system Xc^− [2] was below 15.8 nM throughout.

As for `Cc1cc2c(c(C(F)F)n1)-c1cccnc1C(C)C(=O)N2CC(=O)Nc1ccc(C(F)F)cc1` (single isomer, unassigned) [#301, 2-[3-(difluoromethyl)-5,10-dimethyl-9-oxo-4,8,12-triazatricyclo[9.4.0.0^2,7]pentadeca-1(11),2(7),3,5,12,14-hexaen-8-yl]-N-[4-(difluoromethyl)phenyl]acetamide], the IC50 on system Xc^− [1] and at system Xc^− [2] was 39.8 to 100 nM each time.

On to `CC1C(=O)N(CC(=O)Nc2ccc(Cl)c(F)c2)c2cc(C(F)F)ncc2-c2cc(F)cnc21` (single isomer, unassigned) [#348, N-(4-chloro-3-fluoro-phenyl)-2-[5-(difluoromethyl)-14-fluoro-10-methyl-9-oxo-4,8,12-triazatricyclo[9.4.0.0^2,7]pentadeca-1(15),2,4,6,11,13-hexaen-8-yl]acetamide], for which the IC50 is 15.8 to 39.8 nM at system Xc^− [1] and below 15.8 nM on system Xc^− [2].

As for `CC1C(=O)N(CC(=O)Nc2ccc(C(F)F)cc2)c2cc(N3CC(F)(F)C3)ccc2-c2cccnc21` (single isomer, unassigned) [#334, 2-[9-(3,3-difluoroazetidin-1-yl)-5-methyl-6-oxo-5H-pyrido[2,3-d][1]benzazepin-7-yl]-N-[4-(difluoromethyl)phenyl]acetamide], the IC50 on system Xc^− [1] and at system Xc^− [2] was below 15.8 nM throughout.

Turning to `CC1C(=O)N(CC(=O)Nc2ccc(Cl)c(F)c2)c2cc(N(C)CCN(C)C)nc(F)c2-c2cccnc21` (single isomer, unassigned) [#266, N-(4-chloro-3-fluoro-phenyl)-2-[5-[2-(dimethylamino)ethyl-methyl-amino]-3-fluoro-10-methyl-9-oxo-4,8,12-triazatricyclo[9.4.0.0^2,7]pentadeca-1(15),2,4,6,11,13-hexaen-8-yl]acetamide], the IC50 at system Xc^− [1] and at system Xc^− [2] was 15.8 to 39.8 nM throughout.

Take `Cc1cc2c(c(Cl)n1)-c1cccnc1C(C)C(=O)N2CC(=O)Nc1ccc(C(F)F)cc1` (single isomer, unassigned) [#116, 2-[3-chloro-5,10-dimethyl-9-oxo-4,8,12-triazatricyclo[9.4.0.0^2,7]pentadeca-1(11),2(7),3,5,12,14-hexaen-8-yl]-N-[4-(difluoromethyl)phenyl]acetamide]: the IC50 on system Xc^− [1] and on system Xc^− [2] was below 15.8 nM in each case.

Regarding `COc1cc(F)c2c(c1)N(CC(=O)Nc1ccc(C(F)F)cc1)C(=O)C(C)c1ncccc1-2` (single isomer, unassigned) [#315, N-[4-(difluoromethyl)phenyl]-2-[11-fluoro-9-methoxy-5-methyl-6-oxo-5H-pyrido[2,3-d][1]benzazepin-7-yl]acetamide], the IC50 on system Xc^− [1] and on system Xc^− [2] was below 15.8 nM in each case.

Take `CC1C(=O)N(CC(=O)Nc2ccc(C(F)(F)F)cc2)c2cc(F)c(=O)n(C)c2-c2cccnc21` (centres unmarked) [#185, 2-(5-fluoro-3,10-dimethyl-4,9-dioxo-3,8,12-triazatricyclo[9.4.0.0^2,7]pentadeca-1(11),2(7),5,12,14-pentaen-8-yl)-N-[4-(trifluoromethyl)phenyl]acetamide]: the IC50 on system Xc^− [1] and at system Xc^− [2] was 39.8 to 100 nM throughout.

In the case of `O=C(CN1C(=O)C(O)c2ncc(F)cc2-c2c(F)cc(F)cc21)Nc1ccc(Cl)c(F)c1` (single isomer, unassigned) [#317, N-(4-chloro-3-fluoro-phenyl)-2-[2,9,11-trifluoro-5-hydroxy-6-oxo-5H-pyrido[2,3-d][1]benzazepin-7-yl]acetamide], the IC50 on system Xc^− [1] was below 15.8 nM; at system Xc^− [2], 15.8 to 39.8 nM.

Consider `Cc1cc2c(c(F)n1)-c1sccc1CC(=O)N2CC(=O)Nc1ccc(C(F)(F)F)cc1` [#42, 2-(14-fluoro-12-meth-yl-8-oxo-3-thia-9,13-diazatricyclo[8.4.0.0^2,6]tetradeca-1(10),2(6), 4,11,13-pentaen-9-yl)-N-[4-(trifluorometh-yl)phenyl]acetamide], for which the IC50 on system Xc^− [1] and at system Xc^− [2] was 39.8 to 100 nM each time.

For the compound `Cc1cc2c(cn1)-c1cc(Cl)ccc1CC(=O)N2CC(=O)Nc1ccc(C(F)(F)F)cc1` [#30, 2-(10-chloro-3-methyl-6-oxo-7H-pyrido[4,3-d][3]benzazepin-5-yl)-N-[4-(trifluoro-methyl)phenyl] acetamide], the IC50 at system Xc^− [1] is 100 to 501 nM; on system Xc^− [2] it was below 15.8 nM.

As for `Cc1cc2c(c(C#N)n1)-c1cccnc1C(C)C(=O)N2CC(=O)Nc1ccc(C(F)(F)F)cc1` (centres unmarked) [#154, 2-(3-cyano-5,10-dimethyl-9-oxo-4,8,12-triazatricyclo[9.4.0.0^2,7]pentadeca-1(11),2(7),3,5,12,14-hexaen-8-yl)-N-[4-(trifluoromethyl)phenyl]acetamide], the IC50 on system Xc^− [1] is 15.8 to 39.8 nM; on system Xc^− [2] it was below 15.8 nM.

Turning to `Cc1cc2c(cn1)-c1cnccc1CC(=O)N2CC(=O)Nc1ccc(C(F)(F)F)cc1` [#6, 2-(5-methyl-9-oxo-4,8,14-triazatricyclo[9.4.0.0^2,7]pentadeca-1(11),2(7),3,5,12,14-hexaen-8-yl)-N-[4-(trifluoromethyl)phenyl]acetamide], the IC50 on system Xc^− [1] and at system Xc^− [2] was 100 to 501 nM throughout.

Turning to `Cc1cc2c(c(F)n1)-c1ccc(F)cc1C(O)C(=O)N2CC(=O)Nc1ccc(C(F)F)cc1` (single isomer, unassigned) [#380, 2-[1,9-difluoro-7-hydroxy-3-methyl-6-oxo-7H-pyrido[4,3-d][3]benzazepin-5-yl]-N-[4-(difluoromethyl)phenyl]acetamide], the IC50 at system Xc^− [1] and at system Xc^− [2] was below 15.8 nM each time.

`COc1cc2c(cn1)-c1cccnc1C(C)C(=O)N2CC(=O)Nc1ccc(Cl)c(F)c1` (single isomer, unassigned) [#320, N-(4-chloro-3-fluoro-phenyl)-2-[5-methoxy-10-methyl-9-oxo-4,8,12-triazatricyclo[9.4.0.0^2,7]pentadeca-1(15),2(7),3,5,11,13-hexaen-8-yl]acetamide]: the IC50 on system Xc^− [1] and on system Xc^− [2] was 15.8 to 39.8 nM throughout.

With `Cc1cc2c(c(Cl)n1)-c1cncc(F)c1CC(=O)N2CC(=O)Nc1ccc(C(F)(F)F)cc1` [#160, 2-(3-chloro-12-fluoro-5-methyl-9-oxo-4,8,14-triazatricyclo[9.4.0.0^2,7]pentadeca-1(11),2(7),3,5,12,14-hexaen-8-yl)-N-[4-(trifluoromethyl)phenyl]acetamide], the IC50 on system Xc^− [1] was 100 to 501 nM; on system Xc^− [2], 15.8 to 39.8 nM.
